Patent US20220233556A1, “COMPOSITIONS AND METHODS FOR TREATING OPHTHALMIC CONDITIONS” (Medicon Pharmaceuticals, Inc., priority 2017, published 2022)

Columns and labels:
PGE2 = PGE2 levels in tears and cornea of rabbits (ELISA); assay type: in vivo
Procedure: FIGS. 9A and 9B illustrate that PS preserves the levels of PGE2 in tears and the cornea. In FIG. 9A, PGE2 levels were determined by ELISA in tears collected on day 7 from naïve rabbits and rabbits with Con A-induced DED treated for 1 week with vehicle or PS. In FIG. 9B, PGE2 levels were further examined. Upper panel: PGE2 levels in the tears of naïve rabbits and rabbits with Con A-induced DED treated for 1 h with PS or ketorolac as in Methods. Lower panel: PGE2 levels in the corneal tissue of naïve rabbits and rabbits with Con A-induced DED treated for 1 week with vehicle or PS or ketorolac or diclofenac. n=8 eyes/group. Values=mean±SEM.
It was determined that the levels of PGE2 in rabbit tears in three groups of rabbits, naïve and those with Con A-induced DED that were treated for 1 week either with PS or vehicle.
In an acute experiment, administered once topically to the eyes of four groups of rabbits with Con A-induced DED was one of the following: vehicle, PS, ketorolac or diclofenac; the latter two are NSAIDs used for the treatment of ocular inflammation and pain. It was determined that the levels of PGE2 in the cornea of these rabbits obtained 1 h later as well as in the corneas of naïve rabbits.

corneal sensitivity = experiment: Corneal touch threshold (CTT) assay, Cochet-Bonnet aesthesiometer; assay type: in vivo, rabbits
Procedure: FIGS. 10A and 10B illustrate the ocular analgesic effect of PS. FIG. 10A: One drop of PS 0.5%, vehicle, or lidocaine was applied to one eye of rabbits (n=4/group) and the corneal touch threshold (CTT) was determined using an Eshesiometer. Vehicle had no effect on CTT (not shown; overlaps with the 0 value horizontal line). Values=mean±SEM. FIG. 10B: PS 0.5% in formulations differing in pH as indicated produced different analgesic responses in rabbits. The areas under each curve (AUC), indicted in the figure, that quantify these responses vary by as much as >5 fold. Values are the average of 2; all were within 11% of each other.
FIGS. 11A and 11B illustrates the effect of various concentrations of PS on corneal sensitivity determined by the corneal touch threshold (CTT) assay. The CTT score is expressed as length of filament. Measurements were performed at the indicated time points after a single application of PS as an eye drop. Rabbits with normal or dry eyes were studied (n=6 eyes per group). Dry eyes were induced by Concanavalin A injection as described in the text. The % PS content in each study is shown. The numbers in parentheses indicate the corresponding value of the area under the curve. Values=mean±SEM.
FIGS. 12A and 12B illustrate the effect of various drugs on corneal sensitivity determined by the corneal touch threshold (CTT) assay described herein. Each drug was used in its commercially available form; one eye drop of each was applied. The numbers in parentheses indicate the corresponding value of the area under the curve. Values=mean±SEM.
The analgesic effect of PS was examined on the surface of the eye by determining the corneal touch threshold (CTT) using the Luneau Cochet-Bonnet Aesthesiometer (Western Ophthalmics, Lynwood, Wash.) an adjustable nylon monofilament with a defined diameter, which is applied in different lengths to the center of the cornea.
In this embodiment, the composition of the PS preparation was: 0.5% PS, 18% (2-hydroxypropyl)-β-cyclodextrin (HP-β-CD), 1-4% Tween 80. Preparation Method: HP-β-CD was dissolved in purified water maintained in a 50° C. water bath. PS was added into this solution and kept at 50° C. overnight with stirring at 500 rpm until PS was fully dissolved. Tween 80 was added into the PS HP-β-CD solution, which was then centrifuged at 3000 rpm for 10 min to remove undissolved particles. The supernatant was collected and pH was adjusted to the desired value using a NaOH solution. The analgesic effect of PS was examined as above.
The effect of PS and other compounds on corneal sensitivity was determined in rabbits with normal or dry eyes using the CTT assay as above; DED was induced by Concanavalin A as previously described. The CTT score, expressed as filament length in mm, of normal eyes was 5.56±0.11 mm (mean±SEM for this and subsequent values) and in dry eyes 4.17±0.12 mm; the difference between the two is statistically significant (p<0.0001).

TGF-β = TGF-β levels in culture medium of human conjunctival cells (ELISA); assay type: cell-based
Procedure: FIGS. 7A and 7B illustrate that PS suppresses cytokine levels in cultured conjunctival cells and the ILG of rabbits with DED. […] Cytokine levels were determined by ELISA and represent the average of a three samples. In FIG. 7B, IL-1β and IL-8 levels were determined by ELISA in the lacrimal glands of rabbits with Con A-induced DED that were treated with vehicle or PS for one week as previously. Gland tissue was homogenized and ELISA was performed on whole-tissue lysates. n=8 glands/group. Values=mean±SEM.
Cells were treated with PS 1×IC50 and 2 h later TNF-α was added to the medium to a final concentration of 10 ng/ml. Culture media were harvested 24 h later and the levels of TGF-β, IL-6 and IL-8 were determined by ELISA. Of note, the levels of IL-1 were below the limit of detection.

uveitis = experiment: LPS-induced uveitis in rats; assay type: in vivo; settings: PS 3% once intravitreally, 48 h
Procedure: Uveitis was produced in rats by injecting LPS 75 ng into the footpad of rats. The rats were injected once intravitreally with 2 μPS 3% or vehicle. A control group included naïve rats (not LPS, no treatment). Forty-eight hours later we examined their eyes, sampled the aqueous humor and after euthanizing them we excised, fixed and stained with H&E ocular tissues following standard protocols. […] These findings document a very strong and unexpected therapeutic effect of PS against uveitis.

## CCOP(=O)(OCC)OCCCCOC(=O)CC1=C(C)/C(=C/c2ccc([S+](C)[O-])cc2)c2ccc(F)cc21 (stereo not shown) [PS, phosphosulindac]
PGE2; rabbits with Con A-induced DED treated 1 week
  PGE2 levels in tears: slightly lower than (but not significantly different from) those of naïve rabbits
PGE2; rabbits with Con A-induced DED, administered once topically, 1 h later
  PGE2 levels in the cornea: no different than those of vehicle-treated and naïve rabbits
Corneal sensitivity; 0.05% PS
  effect on corneal sensitivity (CTT), dry eyes: ineffective
Corneal sensitivity; 0.2% and 1.6% PS
  effect on corneal sensitivity (CTT), dry eyes: essentially equipotent
Corneal sensitivity; Con A-induced dry eyes, single eye drop
  effect on corneal sensitivity (CTT), dry eyes: restored the already suppressed ocular sensitivity
Corneal sensitivity; PS 0.5%, HP-β-CD formulation
  variation of AUC of analgesic response between formulations differing in pH: > 5 fold
Corneal sensitivity; dry eye
  duration of response of corneal sensation: less than 100 min
  onset of response of corneal sensation: ≤ 5 min
Corneal sensitivity; dry eyes
  time at which values returned to baseline: 100 min
Corneal sensitivity; naïve rabbits, single eye drop, PS 0.5%
  analgesic effect (CTT): essentially instantaneous and significant analgesia
Corneal sensitivity; single eye drop, various PS concentrations
  effect on corneal sensitivity (CTT), normal eyes: dose-dependent analgesic effect
TGF-β; PS 1×IC50, TNF-α 10 ng/ml, 24 h
  reduction of TNF-α-stimulated TGF-β levels: 19%
TGF-β; PS 1×IC50, not statistically significant
  reduction of unstimulated TGF-β levels: 4.7%
uveitis; mean±SEM, vehicle 3.3±0.2
  clinical score: 1.8±0.2
uveitis; vehicle 203±39
  inflammatory cells in the tissues of the anterior chamber: 12±2.3
uveitis; aqueous humor, vehicle 543±132
  number of cells: 164±31
